In US6509163B1, “Methods of screening modulators of mammalian P2X7 purinergic receptors” (Glaxo Group Limited, priority 1997, dated 2003):
Read-outs that look alike come from different tables or passages of the source.

Experiments:
[1] = molecular target: T1, hP2X7 receptor (Homo sapiens, UniProt Q99572); test: Whole-cell recordings in HEK293 cells transiently transfected with hP2X7 receptors (Example 3); format: cell-based
T1 construct: a clone containing the complete open reading frame of the hP2X7 receptor was constructed; expressed in transfected cells; host or cells: HEK293 (transient), pcDNA3
T1 sequence (Q99572 1-595): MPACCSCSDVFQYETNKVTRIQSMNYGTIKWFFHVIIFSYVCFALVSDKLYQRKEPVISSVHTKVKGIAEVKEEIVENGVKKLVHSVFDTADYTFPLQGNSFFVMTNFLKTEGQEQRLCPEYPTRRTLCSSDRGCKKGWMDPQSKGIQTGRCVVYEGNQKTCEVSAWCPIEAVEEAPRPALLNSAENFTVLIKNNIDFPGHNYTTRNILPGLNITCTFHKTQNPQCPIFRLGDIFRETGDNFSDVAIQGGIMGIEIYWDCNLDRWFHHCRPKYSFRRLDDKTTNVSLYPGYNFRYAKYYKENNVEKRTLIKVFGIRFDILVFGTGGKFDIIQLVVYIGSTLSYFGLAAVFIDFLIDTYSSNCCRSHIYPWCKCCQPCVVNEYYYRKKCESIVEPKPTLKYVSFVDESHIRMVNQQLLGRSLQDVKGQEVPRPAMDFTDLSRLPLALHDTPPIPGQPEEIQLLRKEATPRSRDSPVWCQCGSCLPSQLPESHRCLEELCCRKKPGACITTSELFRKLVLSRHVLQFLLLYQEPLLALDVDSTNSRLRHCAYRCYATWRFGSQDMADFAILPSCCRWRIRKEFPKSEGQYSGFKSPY
Method: Cell culture. HEK293 cells were transiently transfected with cDNA (1 μg/ml) and lipofectin dissolved in Optimem (GIBCO) placed into petri dishes containing four coverslips onto which cells were plated at a density of about 8×10^4/coverslip. Cells were washed 5 h later and normal DMEM applied. Electrophysiological studies or dye uptake measurements were carried out 18-49 h later. For each set of transfections, parallel experiments were performed on HEK cells transfected with cDNA encoding both rP2X7 and hP2X7 receptors.
Electrophysiological experiments. Whole-cell recordings were made using the EPC9 patch-clamp amplifier and Pulse acquisition programs (HEKA, Lambrecht, Germany). Patch pipettes (5-7 MΩ) contained (mM) CsCl or NaCl 154, EGTA 10, HEPES 5. The normal extracellular solution contained (mM) NaCg 147, KCl2, CaCl2 2, MgCl2 1, HEPES 10 and glucose 12, and the “low divalent” solution had no magnesium and 0.3 mM CaCl2. Agonists were delivered by U-tube delivery system; antagonists, when applied, were present in both superfusion and U-tube. Experiments were carried out at room temperature.

[2] = molecular target: T2, P2X7 receptor (Rattus norvegicus, UniProt Q64663); test: Whole-cell recordings of agonist-evoked currents in HEK293 cells transfected with rat P2X7 cDNA (Example 2); format: cell-based; conditions: for EC50: read-out: EC50 (half-maximal concentration) for current
T2 construct: yielding a construct that encoded the entire P2X7 protein; expressed in transfected cells
T2 sequence (Q64663 1-595): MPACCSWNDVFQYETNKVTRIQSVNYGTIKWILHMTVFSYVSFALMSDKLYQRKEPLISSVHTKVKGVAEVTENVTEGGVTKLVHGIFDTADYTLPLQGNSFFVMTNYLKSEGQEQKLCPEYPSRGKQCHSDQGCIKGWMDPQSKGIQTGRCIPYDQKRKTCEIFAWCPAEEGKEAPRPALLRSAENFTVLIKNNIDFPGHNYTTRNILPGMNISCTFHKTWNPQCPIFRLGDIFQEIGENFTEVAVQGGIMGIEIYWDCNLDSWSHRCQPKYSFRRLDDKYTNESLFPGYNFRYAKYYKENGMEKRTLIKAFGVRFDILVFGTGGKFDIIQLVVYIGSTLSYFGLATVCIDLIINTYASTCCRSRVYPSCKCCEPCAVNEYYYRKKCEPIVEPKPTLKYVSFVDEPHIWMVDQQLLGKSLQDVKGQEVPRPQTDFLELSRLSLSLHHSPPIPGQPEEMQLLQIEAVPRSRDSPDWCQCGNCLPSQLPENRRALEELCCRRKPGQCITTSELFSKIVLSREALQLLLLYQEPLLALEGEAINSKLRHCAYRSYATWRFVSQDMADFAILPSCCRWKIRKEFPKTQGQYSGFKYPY
Method: Whole-cell recordings were obtained at room temperature from HEK293 cells transiently or stably transfected with P2X7 cDNA, from HEK293 cells transiently transfected with P2X7ΔC cDNA, and from J774A.1 cells (American Type Culture Collection, Rockville, Md.). Agonist were applied for periods of 1 to 3 s by a fast-flow U-tube delivery system (Fenwick et al, J. Physiol. (London) 331:577 (1982)). The internal pipette solution was 140 mM cesium-aspartate or potassium-aspartate, 20 mM NaCl, 10 mM EGTA, and 5 mM Hepes: normal external solution was 145 mM NaCl, 2 mM KCl, 2 mM CaCl2, 1 mM MgCl2, 10 mM Hepes, and 12 mM glucose. Low divalent external solution was nominally magnesium-free with 0.3 mM CaCl2. For cells expressing P2X7 receptors and J774 cells, concentration-response curves were constructed in low divalent solution by recording currents in response to 1-s applications of agonist at 8-min intervals with normal external solution present for 6 min before each application. This protocol was necessary to prevent the development of sustained inward currents. Lipofectin was used for transfection (Buell et al, EMBO J. 15:55 (1996)).
Reversal potentals (Erev) were obtained by application of ATP (300 μM) or BzATP (30 μM) while the membrane was held at various potentals or by application of voltage ramps from −120 to 30 or 50 mV. Permeability ratios from (Erev) were calculated by first computing α (=Pna/PK, where P is permeability) for internal (i) and external (o) concentrations [Na]i=20 mM, [Na]o=145 mM, [Ko]=0 mM, and [K]i=140 mM from α={[145/exp(Erev)F/RT −20]}/140 (where F is the Faraday, R is the gas constant, and T is the absolute temperature). Other PK/PNa values, when [X]o=145 mM, [Na]i=20 mM, [K]i=140 mM, and [Na]o=[K]o=[X]i=0 mM, were computed from PK/PNa={[exp (ErevF/RT) (20=140α)}/145. In order of size (FIG. 3C), X was cesium, methylamine, tris(hydroxymethyl)-aminomethane, tetraethylammonium, and N-methyl-D-glucamine. The internal solution also contained 10 mM EGTA and 5 mM Hepes. External solutions also contained 10 mM glucose and normal or low concentrations of divalent cations; pH was maintained at 7.3 with HCl, histidine, or Hepes as required, and the osmolarity of all solutions was 295 to 315.

EC50 at hP2X7 relative to rP2X7 receptor (fold greater) [1]: 25 fold
potency to activate the receptor relative to ATP [1]: 10 fold
cation current induced by maximal concentration of BzATP ([1]; 300 μM BzATP, n=12): 1777±342 pA
current measured at 30 s, of the peak current ([1]; BzATP 300 μM, low extracellular divalent concentrations, n=16): 18±2%
Current amplitude (mean±SEM) to BzATP ([2]; 30 μM BzATP, normal solution, holding potential −70 mV, transiently transfected HEK cells, n=18): 636±118 pA
EC50 ([2]; normal solution (2 mM CaCl2, 1 mM MgCl2), n=4): 7 ± 2 µM
EC50 ([2]; zero magnesium, n=7): 3.7 ± 0.7 µM
SMILES: Nc1ncnc2c1ncn2[C@@H]1O[C@H](COP(=O)(O)OP(=O)(O)OP(=O)(O)O)[C@@H](OC(=O)c2ccc(C(=O)c3ccccc3)cc2)[C@H]1O [BzATP, 3′-O-(4-benzoyl)benzoyl ATP]
